Three substances from patent US10513559B2, “Amatoxin-armed therapeutic cell surface binding components designed for tumour therapy” (Deutsches Krebsforschungszentrum, priority 2009, dated 2019) can be followed below.

The subject of experiment [1] is MCF-7 breast cancer cells. As to the kind of experiment: binding of conjugates to MCF-7 cells by flow cytometry. Further details: species or system human. Particulars: 1 μg/ml, 1 h on ice; FITC-labeled secondary antibody; identical antibody amounts. Here is the method: The abbreviation FL1-H stands for “fluorescence 1 height” which means the intensity of fluorescence 1, i.e. the green channel for FITC.
Binding of huHEA125-amanitin and huHEA125-phalloidin conjugates versus non-conjugated huHEA125 antibody was analyzed by flow cytometry. MCF-7 target cells were washed twice in FACS buffer (Dulbecco's PBS with 1% heat-inactivated fetal calf serum and 0.1% sodium azide) counted and adjusted to 2×10^7 cells per ml. Fifty μl of cell suspension was given to each well of a 96 well U-bottom microtiter plate. Immunotoxins huHEA125-amanitin1, huHEA125-amanitin4 and huHEA125-phalloidin as well as unconjugated huHEA125 antibody were added at a concentration of 1 μg/ml in a volume of 100 μl per well and incubated for 1 h on ice. The plate was centrifuged (2 min at 2000 rpm) and the supernatant was removed from the cells. Cells were re-suspended in 150 μl of FACS buffer and centrifuged again. Subsequently, 100 μl of FITC-labeled F(ab′)2 goat anti-human IgG (H+L) secondary antibody was added per well and incubated again for 1 h on ice. After two washing steps by centrifugation, cells were taken up in 100 μl/well of propidium iodide solution (1 μg/ml in FACS buffer) allowing discrimination of dead cells. Analysis was performed on a FACScan cytometer (Becton and Dickinson, Heidelberg, Germany) using CellQuest software.

Another experiment concerns MCF-7 cells. As to the kind of experiment: proliferation assay, [3H]-thymidine incorporation, MCF-7. In kind it is cell-based, human. Particulars: 72 or 96 h, amanitin concentration, read-out: IC50 of inhibition of cell proliferation. Here is the method:
Inhibition of cell growth by amanitin-IgG conjugates was determined by incorporation of [^3H]-thymidine. Serial dilutions of amanitin-huHEA125 and amanitin in complete medium (RPMI 1640 supplemented with 10% heat-inactivated FCS, 2 mM L-glutamine and 1 mM sodium pyruvate) ranging from 2×10^−5 M to 6×10^−13 M were prepared in triplicates in a volume of 100 μl in the wells of a 96 well flat-bottom tissue culture microtiter plate. […] Plates were incubated in a humidified atmosphere at 37° C. and 5% CO2 for 72 or 96 h. At 20 h before the end of the assay, 1 μCi of [^3H]-thymidine was added. Subsequently, plates were processed with a Tomtec cell harvester and the incorporated radioactivity was determined by liquid scintillation counting (Wallac Betaplate Liquid Scintillation Counter, PerkinElmer Life and Analytical Sciences) and given as cpm.
Three examples of growth inhibition induced by different amanitin-IgG conjugates are depicted in FIGS. 5, 6, and 9. In all three experiments MCF-7 cells were used. […] In the experiment outlined in FIG. 6 huHEA125-Amanitin4 was compared with an alpha-phalloidin huHEA125 conjugate and with free Amanitin.
On the technique in general: Uptake of a labelled nucleoside into DNA is a usual measure of proliferation.

For the substance “huHEA125: chimeric anti-EpCAM antibody: mouse HEA125 variable domains, human kappa light and IgG1 heavy constant chains (SEQ ID NO: 1/2, 11)”, in experiment [1], the “mean fluorescence intensity (MFI)” value is recorded as 1094. As to Amanitin [reference compound], the IC50 in the experiment with MCF-7 cells was ~100 nM. On the same count and under the same terms, under “α-Amanitin-glutarate-huHEA125 [huHEA125-Amanitin3]” stands ~0.002 nM.
